In patent US11655258B2, “Heterocycle derivatives as pesticides” (BAYER AKTIENGESELLSCHAFT, priority 2017, dated 2023):
Where two headings read alike, the source gives them in different places. Blank lines part the entries; values can stand above or below the molecule they belong to.

Tests used:
Phaedon cochleariae = Phaedon cochleariae spray test; assay type: in vivo; settings: 168 h, read-out: efficacy; for pest or weed control at 20 g/ha: application rate 20 g/ha
Experimental: Phaedon cochleariae—Spray Test • Solvent: 78.0 parts by weight of acetone • 1.5 parts by weight of dimethylformamide • Emulsifier: alkylaryl polyglycol ether
(§1) To produce a suitable active compound preparation, 1 part by weight of active compound is dissolved using the stated parts by weight of solvent and made up with water containing an emulsifier concentration of 1000 ppm until the desired concentration is attained. To produce further test concentrations, the formulation is diluted with emulsifier-containing water.
Discs of Chinese cabbage leaves (Brassica pekinensis) are sprayed with an active compound formulation of the desired concentration and, after drying, populated with larvae of the mustard beetle (Phaedon cochleariae).
After 7 days, the efficacy in % is determined. 100% means that all the beetle larvae have been killed; 0% means that no beetle larvae have been killed.

Myzus persicae [1] = test: Myzus persicae spray test (MYZUPE S), bell pepper plants; assay type: in vivo; settings: 144 h, 6 dat, read-out: % efficacy
Experimental: Myzus persicae—Spray Test (MYZUPE S) • Solvent: 14 parts by weight of dimethylformamide • Emulsifier: alkylaryl polyglycol ether
as §1, with “water. If the addition of ammonium salts or/and penetrants is required, these are each added in a concentration of 1000 ppm to the formulation solution.” for “water.”
Bell pepper plants (Capsicum annuum) severely infested with the green peach aphid (Myzus persicae) are treated by spraying with the active compound formulation in the desired concentration.
After the desired time, the kill in % is determined. 100% means that all the animals have been killed; 0% means that no animals have been killed.

Myzus persicae [2] = test: Myzus persicae oral test; assay type: in vivo; settings: 120 h, read-out: efficacy
Experimental: Myzus persicae Oral Test • Solvent: 100 parts by weight of acetone
To produce a suitable preparation of active compound, 1 part by weight of active compound is dissolved using the specified parts by weight of solvent and made up with water until the desired concentration is attained.
50 μl of the active compound preparation are transferred into microtitre plates and made up to a final volume of 200 μl with 150 μl of IPL41 insect medium (33%+15% sugar). Subsequently, the plates are sealed with parafilm, which a mixed population of green peach aphids (Myzus persicae) within a second microtitre plate is able to puncture and imbibe the solution through.
(§2) After 5 days, the efficacy in % is determined. 100% means that all the aphids have been killed; 0% means that no aphids have been killed.

Aphis gossypii = Aphis gossypii spray test (APHIGO); assay type: in vivo; settings: 144 h, 6 dat, read-out: % efficacy
Experimental: Aphis gossypii Spray Test (APHIGO) • Solvent: 14 parts by weight of dimethylformamide • Emulsifier: alkylaryl polyglycol ether
as §1, with “water. If the addition of ammonium salts or/and penetrants is required, these are each added in a concentration of 1000 ppm to the formulation solution.” for “water.”
Cotton plants (Gossypium hirsutum) heavily infested by the cotton aphid (Aphis gossypii) are sprayed with an active compound formulation of the desired concentration.
After the desired time, the kill in % is determined. 100% means that all the aphids have been killed; 0% means that no aphids have been killed.

Myzus persicae [3] = test: Myzus persicae spray test (Chinese cabbage leaf discs); assay type: in vivo; settings: foliar, 120 h, read-out: efficacy
Experimental: Myzus persicae Spray Test • Solvent: 78 parts by weight of acetone • 1.5 parts by weight of dimethylformamide • Emulsifier: alkylaryl polyglycol ether
as §1
Discs of Chinese cabbage leaves (Brassica pekinensis) infested by all stages of the green peach aphid (Myzus persicae) are sprayed with an active compound formulation of the desired concentration.
as §2

[4] = log P by HPLC on reversed-phase column (EEC Directive 79/831 Annex V.A8); assay type: physicochemical; settings: reversed-phase HPLC column (C18); pH 7.8, 0.001 molar aqueous ammonium bicarbonate/acetonitrile, 55° C.; read-out: log P (neutral)
Experimental: The log P values are measured according to EEC Directive 79/831 Annex V.A8 by HPLC (high-performance liquid chromatography) on a reversed-phase column (C 18). Temperature: 55° C.
The LC-MS determination in the neutral range is effected at pH 7.8 with 0.001 molar aqueous ammonium bicarbonate solution and acetonitrile as mobile phases; linear gradient from 10% acetonitrile to 95% acetonitrile. Called log P (neutral) in the table.
Calibration is carried out using unbranched alkan-2-ones (having 3 to 16 carbon atoms) with known Log P values (Log P values determined on the basis of the retention times by linear interpolation between two successive alkanones).

Nilaparvata lugens = Nilaparvata lugens spray test (NILALU); assay type: in vivo; settings: 96 h, 4 dat, read-out: % efficacy
Experimental: Nilaparvata lugens—Spray Test (NILALU) • Solvent: 52.5 parts by weight of acetone • 7 parts by weight of dimethylformamide • Emulsifier: alkylaryl polyglycol ether
as §1, with “water. If the addition of ammonium salts or/and penetrants is required, these are each added in a concentration of 1000 ppm to the formulation solution.” for “water.”
Rice plants (Oryza sativa) are sprayed with an active ingredient formulation of the desired concentration and then populated with larvae of the brown planthopper (Nilaparvata lugens).
After the desired period of time, the efficacy in % is determined. 100% means that all of the planthoppers have been killed; 0% means that none of the planthoppers have been killed.

Myzus persicae [5] = test: Myzus persicae drench test (MYZUPE D), savoy cabbage; assay type: in vivo; settings: soil, 240 h, 10 dat, read-out: % efficacy
Experimental: Myzus persicae—Drench Test (MYZUPE D) • Solvent: 7 parts by weight of dimethylformamide • Emulsifier: 2 parts by weight of alkylaryl polyglycol ether
To produce a suitable active compound preparation, 1 part by weight of active compound is mixed with the specified amounts of solvent and emulsifier, and the concentrate is diluted with water to the desired concentration, it being necessary to include the volume of soil which is drenched in the calculation. It should be ensured that a concentration of 40 ppm of emulsifier in the soil is not exceeded. To produce further test concentrations, water is used for dilution.
Savoy cabbage (Brassica oleracea) in pots with soil and infested by all stages of the green peach aphid (Myzus persicae) is watered with an active compound preparation of the desired concentration.
After the desired period of time, the efficacy in % is determined. 100% means that all the aphids have been killed; 0% means that no aphids have been killed.

Spodoptera frugiperda = Spodoptera frugiperda spray test; assay type: in vivo; settings: application rate 100 g/ha, after 7 days
Experimental: Spodoptera frugiperda—Spray Test • Solvent: 78.0 parts by weight of acetone • 1.5 parts by weight of dimethylformamide • Emulsifier: alkylaryl polyglycol ether
as §1
Leaf discs of maize (Zea mays) are sprayed with an active compound formulation of the desired concentration and, after drying, populated with caterpillars of the fall armyworm (Spodoptera frugiperda).
After 7 days, the efficacy in % is determined. 100% means that all the caterpillars have been killed; 0% means that no caterpillar has been killed.

Ctenocephalides felis = Ctenocephalides felis oral test; assay type: in vivo; settings: application rate 100 ppm in citrated cattle blood, after 2 days
Experimental: Ctenocephalides felis—Oral Test • Solvent: dimethyl sulfoxide
To produce a suitable active compound formulation, 10 mg of active compound are mixed with 0.5 ml of dimethyl sulfoxide. Dilution with citrated cattle blood gives the desired concentration.
About 20 unfed adult cat fleas (Ctenocephalides felis) are placed into a chamber which is closed at the top and bottom with gauze. A metal cylinder whose bottom end is closed with parafilm is placed onto the chamber. The cylinder contains the blood/active compound formulation, which can be imbibed by the fleas through the parafilm membrane.
After 2 days, the kill in % is determined. 100% means that all of the fleas have been killed; 0% means that none of the fleas have been killed.

Lucilia cuprina = Lucilia cuprina test; assay type: in vivo; settings: application rate 100 ppm, L1 larvae, after 2 days
Experimental: Lucilia cuprina Test • Solvent: dimethyl sulfoxide
To produce a suitable active compound formulation, 10 mg of active compound are mixed with 0.5 ml of dimethyl sulfoxide, and the concentrate is diluted with water to the desired concentration.
About 20 L1 larvae of the Australian sheep blowfly (Lucilia cuprina) are transferred into a test vessel containing minced horsemeat and the active compound formulation of the desired concentration.
After 2 days, the kill in % is determined. 100% means that all the larvae have been killed; 0% means that no larvae have been killed.

[6] = application rate 100 g/ha, after 7 days
[7] = application rate 4 ppm, after 5 days
[8] = application rate 100 g/ha, after 5 days

Structure (SMILES): CCS(=O)(=O)c1c(-c2nc3ccc(C(F)(F)F)cn3n2)nc2cc(OCC(F)(F)F)ccn12 [Example I-06]
pest or weed control at 20 g/ha (Phaedon cochleariae; after 7 days): 100% | pest or weed control at 100 g/ha (Phaedon cochleariae; [6]): 100% | Emax at 20 ppm (Myzus persicae [1]): 99% | pest or weed control at 4 ppm (Myzus persicae [2]; [7]): 100% | Emax at 20 ppm (Aphis gossypii): 95%

chromatographic logP [4]: 2.44
Structure (SMILES): CCS(=O)(=O)c1cc2ccccc2nc1-c1nc2cnc(C(F)(F)F)cn2n1 [Example I-02, 3-Ethylsulfonyl-2-[6-(trifluoromethyl)-[1,2,4]triazolo[1,5-a]pyrazin-2-yl]quinoline]
pest or weed control at 100 g/ha (Phaedon cochleariae; [6]): 100% | pest or weed control at 4 ppm (Myzus persicae [2]; [7]): 90% | pest or weed control at 100 g/ha (Myzus persicae [3]; [8]): 100%

chromatographic logP [4]: 2.28
Structure (SMILES): CCS(=O)(=O)c1c(C#N)nc2cc(C(F)(F)F)ccn12 [3-(Ethylsulfonyl)-7-(trifluoromethypimidazo[1,2-a]pyridine-2-carbonitrile]

chromatographic logP [4]: 3.01
Structure (SMILES): N=C(Nc1cnc(C(F)(F)F)cn1)c1nc2ccccc2cc1Br [3-Bromo-N-[5-(trifluoromethyl)pyrazin-2-yl]quinoline-2-carboxamidine]

Structure (SMILES): CCS(=O)(=O)c1c(-c2nc3ccc(C(F)(F)F)cn3n2)nc2n1CCCC2 [Example I-04]
pest or weed control at 4 ppm (Myzus persicae [2]; [7]): 100%

chromatographic logP [4]: 1.57
Structure (SMILES): CCS(=O)(=O)c1c(C(N)=O)nc2cc(C(F)(F)F)ccn12 [3-(Ethylsulfonyl)-7-(trifluoromethyl)imidazo[1,2-a]pyridine-2-carboxamide]

Structure (SMILES): CCS(=O)(=O)c1c(-c2nc3cnc(C(F)(F)F)cn3n2)ncc2ccccc12 [Example I-16]
pest or weed control at 4 ppm (Myzus persicae [2]; [7]): 100% | pest or weed control at 100 g/ha (Myzus persicae [3]; [8]): 100%

chromatographic logP [4]: 2.56
Structure (SMILES): CCSc1c(C(=O)OC)nc2cc(C(F)(F)F)ccn12 [Methyl 3-(ethylsulfanyl)-7-(trifluoromethyl)imidazo[1,2-a]pyridine-2-carboxylate]

Structure (SMILES): CCS(=O)(=O)c1c(-c2nc3ccc(C(F)(F)F)cn3n2)nc2cc(S(=O)(=O)C3CC3)ccn12 [Example I-13]
pest or weed control at 20 g/ha (Phaedon cochleariae; after 7 days): 83% | pest or weed control at 100 g/ha (Phaedon cochleariae; [6]): 100% | Emax at 20 ppm (Myzus persicae [1]): 95% | Emax at 100 g/ha (Nilaparvata lugens): 100% | pest or weed control at 4 ppm (Myzus persicae [2]; [7]): 100% | pest or weed control at 100 g/ha (Myzus persicae [3]; [8]): 100% | Emax at 20 ppm (Myzus persicae [5]): 100% | Emax at 20 ppm (Aphis gossypii): 99%

Structure (SMILES): CCS(=O)(=O)c1c(-c2nc3ccc(C(F)(F)F)cn3n2)ncc2ccccc12 [Example I-15]
pest or weed control at 4 ppm (Myzus persicae [2]; [7]): 100% | pest or weed control at 100 g/ha (Myzus persicae [3]; [8]): 90%

Structure (SMILES): CCS(=O)(=O)c1c(-c2nc3ccc(C(F)(F)F)cn3n2)nc2cc(C3CC3)ccn12 [Example I-10]
pest or weed control at 20 g/ha (Phaedon cochleariae; after 7 days): 83% | Emax at 20 ppm (Myzus persicae [1]): 100% | Emax at 100 g/ha (Nilaparvata lugens): 100% | pest or weed control at 4 ppm (Myzus persicae [2]; [7]): 100% | pest or weed control at 100 g/ha (Myzus persicae [3]; [8]): 90% | Emax at 20 ppm (Myzus persicae [5]): 90% | aphid kill at 20 ppm (Aphis gossypii): 99% | efficacy (Spodoptera frugiperda): 83%

Structure (SMILES): CCS(=O)(=O)c1c(-c2nc3ccc(C(F)(F)F)cn3n2)nc2cc(NC(=O)OC)ccn12 [Example I-08]
pest or weed control at 100 g/ha (Phaedon cochleariae): 83% | pest or weed control at 4 ppm (Myzus persicae [2]): 100% | efficacy (kill) (Ctenocephalides felis): 90% | efficacy (kill) (Lucilia cuprina): 100% | pest or weed control at 100 g/ha (Myzus persicae [3]): 100%

chromatographic logP [4]: 2.15
Structure (SMILES): CCS(=O)(=O)c1c(C(=O)OC)nc2cc(C(F)(F)F)ccn12 [Methyl 3-(ethylsulfonyl)-7-(trifluoromethyl)imidazo[1,2-a]pyridine-2-carboxylate]

Structure (SMILES): CCS(=O)(=O)c1cc2ccccc2nc1-c1nc2ccc(C(F)(F)F)cn2n1 [Example I-03]
pest or weed control at 100 g/ha (Phaedon cochleariae; [6]): 100% | pest or weed control at 4 ppm (Myzus persicae [2]; [7]): 100% | pest or weed control at 100 g/ha (Myzus persicae [3]; [8]): 90%

chromatographic logP [4]: 2.98
Structure (SMILES): FC(F)(F)c1cn2nc(-c3nc4ccccc4cc3Br)nc2cn1 [3-Bromo-2-[6-(trifluoromethyl)-[1,2,4]triazolo[1,5-a]pyrazin-2-yl]quinoline]

Structure (SMILES): CCS(=O)(=O)c1c(-c2nc3ccc(C(F)(F)F)cn3n2)nc2cc(C(=O)OC)ccn12 [Example I-11]
pest or weed control at 4 ppm (Myzus persicae [2]; [7]): 100%

Structure (SMILES): CCS(=O)(=O)c1c(-c2nc3ccc(C(F)(F)F)cn3n2)nc2cc(NC(C)=O)ccn12 [Example I-07]
pest or weed control at 4 ppm (Myzus persicae [2]; [7]): 100% | efficacy (kill) (Ctenocephalides felis): 100%

Structure (SMILES): CCS(=O)(=O)c1c(-c2nc3cc(C(F)(F)F)ccc3n2C)nc2cc(C(F)(F)F)ccn12 [Example I-34, reference compound]
Emax at 20 ppm (Myzus persicae [1]): 0% | Emax at 100 g/ha (Nilaparvata lugens): 0% | Emax at 500 g/ha (Nilaparvata lugens; 500 g/ha): 0% | Emax at 20 ppm (Myzus persicae [5]): 0% | aphid kill at 20 ppm (Aphis gossypii): 0%
